Drawing on ChEMBL document CHEMBL1129699, “Synthesis of furo[2,3-c]pyran--D-thymidine” (Bioorg Med Chem Lett, 1996), this text covers IC50 and CC50 for 2 molecules.

The test system of assay [1] is CEM-SS. Nature of the assay: Compound was tested in vitro for its anti-HIV activity in CEM-SS cells. Conditions: Homo sapiens. The assay is classed as functional, cell-based.
The test system of assay [2] is CEM-SS. Nature of the assay: Compound was tested in vitro for its cytotoxicity in CEM-SS cells. The assay is classed as functional. Conditions: Homo sapiens.

`Cc1cn(C2CC3CC(C)OCC3(CO)O2)c(=O)[nH]c1=O` (centres undefined): the IC50 (in general, the midpoint of a concentration-inhibition curve) with CEM-SS [1] was greater than 100 µM. The CC50 (usually the concentration at which the toxic effect on the cells reaches its halfway point) with CEM-SS [2] is greater than 100 µM.

Molecule `Cc1cn(C2CC3CC(CI)OCC3(CO)O2)c(=O)[nH]c1=O` (centres undefined) registered an IC50 in the assay with CEM-SS [1] greater than 100 µM. Also, the 50% cytotoxic concentration (CC50) in the assay with CEM-SS [2] is greater than 100 µM.
